Measurements published in US20260347403A1, “FUNGICIDAL COMPOUND” (priority 2022, published 2026).
Read-outs that look alike come from different tables or passages of the source. Numbered stars: 1 amine (or outer) side, 2 acyl side, 3 side chain; on linkers, the order of the positions; unused ones are H or OH. Bridge positions count the residues as written; N and C are the ends. Square brackets hold non-standard residues; d marks the D form. Peptide text beside a SMILES is read from it. * marks the point of attachment. Tridecanoyl(12-Me) = CC(C)CCCCCCCCCCC(=O)*; X1 = NC(=O)CC(O)C(N[*:1])C(=O)[*:2]; NMeF = CN[CH](Cc1ccccc1)C(=O)O; NMeN = CN[CH](CC(N)=O)C(=O)O; X2 = CCC(C)CCCCCCCCCCC(=O)*

Assays:
[1] = system: Phaeosphaeria nodorum; test: Leaf disc test on wheat, Phaeosphaeria nodorum (Glume Blotch), 5-7 days after application; assay type: in vivo, Phaeosphaeria nodorum (Septoria nodorum) on wheat; details: Table 5
Experimental: Leaf disks or leaf segments of various plant species were cut from plants grown in the greenhouse. The cut leaf disks, or segments were placed in multiwell plates (24-well format) onto water agar. The leaf disks were sprayed with a test solution before inoculation with the fungal spores. Compounds to be tested were prepared as DMSO solutions (max. 10 mg/ml) which were diluted to the appropriate concentration with water plus 0.025% Tween® 20 just before spraying. The inoculated leaf disks or segments were incubated under defined conditions (temperature, relative humidity, light, etc.) according to the respective test system. A single evaluation of disease level was carried out by visual evaluation 3-9 days days after inoculation, depending on the pathosystem as indicated below. Percent disease control relative to the untreated check leaf disks or segments was then calculated.
Phaeosphaeria Nodorum (Septoria nodorum)/Wheat/Leaf Disc (Glume Blotch)
Wheat leaf segments cv. Kanzler were placed on agar in a multiwell plate (24-well format) and sprayed with the formulated test compound diluted in water. The leaf disks were inoculated with a spore suspension of the fungus 2 days after application. The inoculated test leaf disks were incubated at 20 °C and 75% rh under a light regime of 12 h light/12 h darkness in a climate cabinet and the activity of a compound was assessed as percent disease control compared to untreated when an appropriate level of disease damage appears in untreated check leaf disks (5-7 days after application)

[2] = system: ROS production induced by flg22; test: Reactive Oxygen Species (ROS) burst assay with wheat leaf discs; details: Triticum aestivum, foliar
[3] = system: Cercospora arachidicola; test: Liquid culture 96-well mixture assay with malonomicin, Cercospora arachidicola, 5-6 days; assay type: cell-based; details: line H malonomicin alone, concentrations in Table 8
Experimental: (§1) A stock solution for compound of Formula I(a) was produced in DMSO (max. 10 mg/ml). Malonomicin was produced according to Law et al, 2018 (Nature Catalys is |VOL 1|DECEMBER 2018|977-984). A stock solution of malonomicin was produced in water plus 0.025% Tween® 20.
(§2) Assays to test efficacy of mixtures of the lipopeptide compound of Formula I(a) in combination with malonomicin on the control of fungal pathogens in a liquid culture assay were designed for a 96well plate as outlined in table 1:
(§3) The 96 well plate design allows to compare disease control of the mixture with disease control of the respective single compound at the same rate.
A master plate with 10× concentrated solution of the compound stock solutions diluted in water plus 0.025% Tween® 20 was prepared. The concentration of DMSO (from the stock of compound of Formula (a)) and Tween® 20 was kept constant in all cells of the master plate. 10 μl was transferred from the master plate to a 96well test plate. The nutrient broth containing the fungal spores/mycelia fragments was then added to the test plate to give an end concentration of 1× for the tested compounds (as outlined in Table 8). The test plates were incubated in the dark at 24 °C and 96% rh. […]
Cercospora arachidicola (EPPO Code: MYCOAR)
Conidia of the fungus from cryogenic storage were directly mixed into nutrient broth (PDB: potato dextrose broth).

[4] = system: Botrytis cinerea; test: Liquid culture 96-well mixture assay with malonomicin, Botrytis cinerea, 72 hrs; assay type: cell-based; details: line H malonomicin alone, concentrations in Table 8
Experimental: as §1, §2, §3
A master plate with 10× concentrated solution of the compound stock solutions diluted in water plus 0.025% Tween® 20 was prepared. The concentration of DMSO (from the stock of compound of Formula (a)) and Tween® 20 was kept constant in all cells of the master plate. 10 μl was transferred from the master plate to a 96well test plate. The nutrient broth containing the fungal spores/mycelia fragments was then added to the test plate to give an end concentration of 1× for the tested compounds (as outlined in Table 8). The test plates were incubated in the dark at 24 °C and 96% rh. The inhibition of fungal growth was determined photometrically after ca 3 days, and percent fungal growth reduction relative to the untreated check was calculated.
Botrytis cinerea (EPPO Code: BOTRCI)
Conidia of the fungus from cryogenic storage were directly mixed into nutrient broth (Vogel's minimal media).

[5] = read-out: Fold change (peak ROS)
[6] = read-out: increase of ROS production induced by flg22 (factor)
[7] = plate column (2), highest malonomicin concentration, lines A-G with compound of Formula I(a) dilution series
[8] = plate column (3) of malonomicin dilution series, lines A-G with compound of Formula I(a)
[9] = plate column (4) of malonomicin dilution series, lines A-G with compound of Formula I(a)
[10] = plate column (5) of malonomicin dilution series, lines A-G with compound of Formula I(a)
[11] = plate column (6) of malonomicin dilution series, lines A-G with compound of Formula I(a)
[12] = plate column (7) of malonomicin dilution series, lines A-G with compound of Formula I(a)
[13] = plate column (8) of malonomicin dilution series, lines A-G with compound of Formula I(a)
[14] = plate column (9) of malonomicin dilution series, lines A-G with compound of Formula I(a)
[15] = plate column (10) of malonomicin dilution series, lines A-G with compound of Formula I(a)
[16] = plate column (11), lowest malonomicin concentration, lines A-G with compound of Formula I(a)

Row | SMILES | % reduction of fungal growth ([1]; 0.82 ppm) | % reduction of fungal growth ([1]; 2.5 ppm) | % reduction of fungal growth ([1]; 7.4 ppm) | % reduction of fungal growth ([1]; 22 ppm) | % reduction of fungal growth ([1]; 67 ppm) | % reduction of fungal growth ([1]; 200 ppm) | fold induction at 1 ppm [2, 5] | fold induction at 25 ppm [2, 5] | fold induction at 100 ppm [2, 5] | fold induction at 100 ppm [2, 6] | other results
1 | CC(C)CCCCCCCCCCC(=O)NC1C(=O)NC(CC(=O)O)C(=O)NC(C(O)CC(N)=O)C(=O)NC(CO)C(=O)N(C)C(CC(N)=O)C(=O)N(C)C(Cc2ccccc2)C(=O)NC(CCC(N)=O)C(=O)NC(CCC(=O)O)C(=O)OC1C (stereo not shown) [Formula I(a)] ({Tridecanoyl(12-Me)}-TD[X1]S[NMeN][NMeF]QE; ester 1-C; configuration not given here) | 0% | 0% | 0% | 0% | 0% | 50% | 0.8 | 0.8 | 2.7 | ≥ 2.7 | –
2 | CCC(C)CCCCCCCCCCC(=O)NC1C(=O)NC(CC(=O)O)C(=O)NC(C(O)CC(N)=O)C(=O)NC(CO)C(=O)N(C)C(CC(N)=O)C(=O)N(C)C(Cc2ccccc2)C(=O)NC(CCC(N)=O)C(=O)NC(CCC(=O)O)C(=O)OC1C (stereo not shown) [Formula I(b)] (X2-TD[X1]S[NMeN][NMeF]QE; ester 1-C; configuration not given here) | 0% | 0% | 0% | 0% | 0% | 0% | 1.2 | 1.3 | 3 | ≥ 2.7 | –
3 | NC[C@@H]1NC(=O)C(C(=O)CC(NC(=O)[C@@H](N)CO)(C(=O)O)C(=O)O)=C1O [malonomicin, {[(2S)-2-amino-3-hydroxypropanoyl]amino}{2-[(5S)-5-(aminomethyl)-4-hydroxy-2-oxo-2,5-dihydro-1H-pyrrol-3-yl]-2-oxoethyl}malonic acid] | – | – | – | – | – | – | – | – | – | – | control of fungal growth (% reduction of growth in the test well as compared to untreated check) [3, 7]: 100%; control of fungal growth (% reduction of growth in the test well as compared to untreated check) [3, 8]: 90%; control of fungal growth (% reduction of growth in the test well as compared to untreated check) [3, 9]: 70%; control of fungal growth (% reduction of growth in the test well as compared to untreated check) [3, 10]: 70%; control of fungal growth (% reduction of growth in the test well as compared to untreated check) [3, 11]: 50%; control of fungal growth (% reduction of growth in the test well as compared to untreated check) [3, 12]: 50%; control of fungal growth (% reduction of growth in the test well as compared to untreated check) [3, 13]: 20%; control of fungal growth (% reduction of growth in the test well as compared to untreated check) [3, 14]: 20%; control of fungal growth (% reduction of growth in the test well as compared to untreated check) [3, 15]: 0%; control of fungal growth (% reduction of growth in the test well as compared to untreated check) [3, 16]: 0%; control of fungal growth (% reduction of growth in the test well as compared to untreated check) [4, 7]: 70%; control of fungal growth (% reduction of growth in the test well as compared to untreated check) [4, 8]: 70%; control of fungal growth (% reduction of growth in the test well as compared to untreated check) [4, 9]: 70%; control of fungal growth (% reduction of growth in the test well as compared to untreated check) [4, 10]: 70%; control of fungal growth (% reduction of growth in the test well as compared to untreated check) [4, 11]: 70%; control of fungal growth (% reduction of growth in the test well as compared to untreated check) [4, 12]: 20%; control of fungal growth (% reduction of growth in the test well as compared to untreated check) [4, 13]: 0%; control of fungal growth (% reduction of growth in the test well as compared to untreated check) [4, 14]: 0%; control of fungal growth (% reduction of growth in the test well as compared to untreated check) [4, 15]: 0%; control of fungal growth (% reduction of growth in the test well as compared to untreated check) [4, 16]: 0%
